The record followed here is US20120220562A1, “Anti-Viral Compounds” (ABBOTT LABAORATORIES, priority 2011, published 2012).

This assay relates to HCV 1b-Con1 replicon. The assay can be described thus: HCV 1b-Con1 replicon assay in the presence of 5% FBS. Type of assay: cell-based. Particulars: Hepatitis C virus. On the technique in general: In antiviral work, replicon cells carry a viral genome segment that copies itself.

For orientation: EC50 means the concentration needed to bring the measured effect to its halfway point. With `COC(=O)N[C@H](C(=O)N1CCC[C@H]1c1nc2ccc([C@H]3CC[C@H](c4ccc5nc([C@@H]6CCCN6C(=O)[C@@H](NC(=O)OC)C(C)C)[nH]c5c4)N3c3cc(F)c(N4CCC(c5ccc(OC)cc5)CC4)c(F)c3)cc2[nH]1)C(C)C` [Example 4.34, methyl {(2S)-1-[(2S)-2-{6-[(2R,5R)-1-{3,5-difluoro-4-[4-(4-methoxyphenyl)piperidin-1-yl]phenyl}-5-{2-[(2S)-1-{(2S)-2-[(methoxycarbonyl)amino]-3-methylbutanoyl}pyrrolidin-2-yl]-1H-benzimidazol-6-yl}pyrrolidin-2-yl]-1H-benzimidazol-2-yl}pyrrolidin-1-yl]-3-methyl-1-oxobutan-2-yl}carbamate], the EC50 was below 0.1 nM.
For the molecule `COC(=O)N[C@H](C(=O)N1CCC[C@H]1c1nc2ccc([C@H]3CC[C@H](c4ccc5nc([C@@H]6CCCN6C(=O)[C@@H](NC(=O)OC)C(C)C)[nH]c5c4)N3c3cc(F)c(N4CCC(F)(c5ccccc5)CC4)c(F)c3)cc2[nH]1)C(C)C` [Example 4.35, methyl {(2S)-1-[(2S)-2-{6-[(2R,5R)-1-[3,5-difluoro-4-(4-fluoro-4-phenylpiperidin-1-yl)phenyl]-5-{2-[(2S)-1-{(2S)-2-[(methoxycarbonyl)amino]-3-methylbutanoyl}pyrrolidin-2-yl]-1H-benzimidazol-6-yl}pyrrolidin-2-yl]-1H-benzimidazol-2-yl}pyrrolidin-1-yl]-3-methyl-1-oxobutan-2-yl}carbamate], the EC50 is below 0.1 nM.
With `COC(=O)N[C@H](C(=O)N1CCC[C@H]1c1nc2ccc([C@H]3CC[C@H](c4ccc5nc([C@@H]6CCCN6C(=O)[C@@H](NC(=O)OC)C(C)C)[nH]c5c4)N3c3ccc(N4CCC(F)(c5ccccc5)CC4)cc3)cc2[nH]1)C(C)C` [Example 4.36, methyl {(2S)-1-[(2S)-2-{6-[(2R,5R)-1-[4-(4-fluoro-4-phenylpiperidin-1-yl)phenyl]-5-{2-[(2S)-1-{(2S)-2-[(methoxycarbonyl)amino]-3-methylbutanoyl}pyrrolidin-2-yl]-1H-benzimidazol-6-yl}pyrrolidin-2-yl]-1H-benzimidazol-2-yl}pyrrolidin-1-yl]-3-methyl-1-oxobutan-2-yl}carbamate], the EC50 was below 0.1 nM.
The figure for `COC(=O)N[C@H](C(=O)N1CCC[C@H]1c1nc2cc([C@H]3CC[C@H](c4cc5nc([C@@H]6CCCN6C(=O)[C@@H](NC(=O)OC)C(C)C)[nH]c5cc4F)N3c3cc(F)c(N4CCC(C(F)(c5ccccc5)c5ccccc5)CC4)c(F)c3)c(F)cc2[nH]1)C(C)C` [Example 4.37, methyl {(2S)-1-[(2S)-2-{5-[(2R,5R)-1-(3,5-difluoro-4-{4-[fluoro(diphenyl)methyl]piperidin-1-yl}phenyl)-5-{6-fluoro-2-[(2S)-1-{(2S)-2-[(methoxycarbonyl)amino]-3-methylbutanoyl}pyrrolidin-2-yl]-1H-benzimidazol-5-yl}pyrrolidin-2-yl]-6-fluoro-1H-benzimidazol-2-yl}pyrrolidin-1-yl]-3-methyl-1-oxobutan-2-yl}carbamate] is below 0.1 nM.
For the molecule `COC(=O)N[C@H](C(=O)N1CCC[C@H]1c1nc2cc([C@H]3CC[C@H](c4cc5nc([C@@H]6CCCN6C(=O)[C@@H](NC(=O)OC)[C@@H](C)OC)[nH]c5cc4F)N3c3cc(F)c(N4CCC(c5ccccc5)CC4)c(F)c3)c(F)cc2[nH]1)[C@@H](C)OC` [Example 4.38, methyl {(2S,3R)-1-[(2S)-2-{5-[(2R,5R)-1-[3,5-difluoro-4-(4-phenylpiperidin-1-yl)phenyl]-5-(6-fluoro-2-{(2S)-1-[N-(methoxycarbonyl)-O-methyl-L-threonyl]pyrrolidin-2-yl}-1H-benzimidazol-5-yl)pyrrolidin-2-yl]-6-fluoro-1H-benzimidazol-2-yl}pyrrolidin-1-yl]-3-methoxy-1-oxobutan-2-yl}carbamate], the concentration giving a half-maximal response (EC50) is below 0.1 nM.
`COC(=O)N[C@H](C(=O)N1CCC[C@H]1c1nc2cc([C@H]3CC[C@H](c4cc5nc([C@@H]6CCCN6C(=O)[C@@H](NC(=O)OC)C6CCOCC6)[nH]c5cc4F)N3c3cc(F)c(N4CCC(c5ccccc5)CC4)c(F)c3)c(F)cc2[nH]1)C1CCOCC1` [Example 4.39, dimethyl ({(2R,5R)-1-[3,5-difluoro-4-(4-phenylpiperidin-1-yl)phenyl]pyrrolidine-2,5-diyl}bis{(6-fluoro-1H-benzimidazole-5,2-diyl)(2S)pyrrolidine-2,1-diyl[(1S)-2-oxo-1-(tetrahydro-2H-pyran-4-yl)ethane-2,1-diyl]})biscarbamate]: the EC50 was below 0.1 nM.
For `COC(=O)N[C@H](C(=O)N1CCC[C@H]1c1nc2cc([C@H]3CC[C@H](c4cc5nc([C@@H]6CCCN6C(=O)[C@@H](NC(=O)OC)C6CCCC6)[nH]c5cc4F)N3c3cc(F)c(N4CCC(c5ccccc5)CC4)c(F)c3)c(F)cc2[nH]1)C1CCCC1` [Example 4.40, dimethyl ({(2R,5R)-1-[3,5-difluoro-4-(4-phenylpiperidin-1-yl)phenyl]pyrrolidine-2,5-diyl}bis{(6-fluoro-1H-benzimidazole-5,2-diyl)(2S)pyrrolidine-2,1-diyl[(1S)-1-cyclopentyl-2-oxoethane-2,1-diyl]})biscarbamate], the EC50 is below 0.1 nM.
`COC(=O)N[C@H](C(=O)N1CCC[C@H]1c1nc2cc([C@H]3CC[C@H](c4ccc5[nH]c([C@@H]6CCCN6C(=O)[C@@H](NC(=O)OC)C(C)C)nc5c4)N3c3ccc(OCc4ccccc4)cc3)ccc2[nH]1)C(C)C` [Example 4.41, methyl {(2S)-1-[(2S)-2-{5-[(2R,5R)-1-[4-(benzyloxy)phenyl]-5-{2-[(2S)-1-{(2S)-2-[(methoxycarbonyl)amino]-3-methylbutanoyl}pyrrolidin-2-yl]-1H-benzimidazol-5-yl}pyrrolidin-2-yl]-1H-benzimidazol-2-yl}pyrrolidin-1-yl]-3-methyl-1-oxobutan-2-yl}carbamate]: the EC50 was below 0.1 nM.
For the molecule `COC(=O)N[C@H](C(=O)N1CCC[C@H]1c1nc2cc([C@H]3CC[C@H](c4cc5nc([C@@H]6CCCN6C(=O)[C@@H](NC(=O)OC)C(C)C)[nH]c5cc4F)N3c3cc(F)c(N4CCN(c5ccc(C(F)(F)F)cc5)CC4)c(F)c3)c(F)cc2[nH]1)C(C)C` [Example 4.42, methyl {(2S)-1-[(2S)-2-{5-[(2R,5R)-1-(3,5-difluoro-4-{4-[4-(trifluoromethyl)phenyl]piperazin-1-yl}phenyl)-5-{6-fluoro-2-[(2S)-1-{(2S)-2-[(methoxycarbonyl)amino]-3-methylbutanoyl}pyrrolidin-2-yl]-1H-benzimidazol-5-yl}pyrrolidin-2-yl]-6-fluoro-1H-benzimidazol-2-yl}pyrrolidin-1-yl]-3-methyl-1-oxobutan-2-yl}carbamate], the EC50 was below 0.1 nM.
On to `COC(=O)N[C@H](C(=O)N1CCC[C@H]1c1nc2ccc([C@H]3CC[C@H](c4cc5[nH]c([C@@H]6CCCN6C(=O)[C@@H](NC(=O)OC)C(C)C)nc5cc4F)N3c3cc(F)c(N4CCCCC4)c(F)c3)cc2[nH]1)C(C)C` [Example 4.43, methyl {(2S)-1-[(2S)-2-{6-[(2R,5R)-1-[3,5-difluoro-4-(piperidin-1-yl)phenyl]-5-{5-fluoro-2-[(2S)-1-{(2S)-2-[(methoxycarbonyl)amino]-3-methylbutanoyl}pyrrolidin-2-yl]-1H-benzimidazol-6-yl}pyrrolidin-2-yl]-1H-benzimidazol-2-yl}pyrrolidin-1-yl]-3-methyl-1-oxobutan-2-yl}carbamate], for which the EC50 is below 0.1 nM.
